Measured values taken from PMC5895803, “Inhibition of cancer stem cell like cells by a synthetic retinoid” (Nature Communications, 2018).
Values after ≈ are worked out from the molar mass of the structure shown. “Also recorded” adds a separate entry of the source.

What was measured:
B16-F1 TRCs [1] = test: Cell cycle analysis (BrdU flow cytometry), S phase of TRCs; format: cell-based, murine; settings: 10 μM, 24 hours
Description: For Annexin-V and PI staining to quantify cell apoptosis, treated TRCs were isolated from 3D fibrin gel by using 5 mg mL^−1 Dispase II (Sigma), cells were labeled with FITC-conjugated Annexin-V and PI according to the manufacturer’s instruction (Biolegend). Data were acquired on a BD Cantoll (BD biosciences) and analyzed with FlowJo software. For BrdU staining to quantify cell proliferation, cells were labeled with FITC-conjugated anti-BrdU antibody according to the manufacturer’s instruction (FITC BrdU Flow Kit, BD Biosciences) and then data were acquired on an Accuri C6 (BD Biosciences) and analyzed with BD Accuri C6 software.
Supplementary Figure 13. WYC-209 blocks S phase of TRCs. Different cancer cell lines cultured in 3D soft fibrin gel on day 0, then treated with 0.1, 1, or 10 μM WYC-209, WYC-209A, WYC-209B on day 4, isolated cells after 24 hours and labeled with FITC-conjugated anti-BrdU antibody for cell cycle analysis, 10 μM ATRA and Tazarotne as positive controls. (a) Representative images of flow cytometry in different conditions. (b) Quantification of S phase ratio in different conditions. Mean ± s.e.m.; n=3 independent experiments; * P<0.05; ** P<0.01; *** P<0.001 (Student’s t-test).
(§1) (1 picture or pasted object on this page, not shown here)

CYP 1A2 = target: T1, CYP 1A2 (Homo sapiens, UniProt P05177); test: Cytochromes enzyme inhibition assay, human liver microsomes; format: in vitro ADME; settings: substrate phenacetin (30 µM)
T1 construct: from tissue; host or cells: human liver microsomes
T1 sequence (P05177 whole entry): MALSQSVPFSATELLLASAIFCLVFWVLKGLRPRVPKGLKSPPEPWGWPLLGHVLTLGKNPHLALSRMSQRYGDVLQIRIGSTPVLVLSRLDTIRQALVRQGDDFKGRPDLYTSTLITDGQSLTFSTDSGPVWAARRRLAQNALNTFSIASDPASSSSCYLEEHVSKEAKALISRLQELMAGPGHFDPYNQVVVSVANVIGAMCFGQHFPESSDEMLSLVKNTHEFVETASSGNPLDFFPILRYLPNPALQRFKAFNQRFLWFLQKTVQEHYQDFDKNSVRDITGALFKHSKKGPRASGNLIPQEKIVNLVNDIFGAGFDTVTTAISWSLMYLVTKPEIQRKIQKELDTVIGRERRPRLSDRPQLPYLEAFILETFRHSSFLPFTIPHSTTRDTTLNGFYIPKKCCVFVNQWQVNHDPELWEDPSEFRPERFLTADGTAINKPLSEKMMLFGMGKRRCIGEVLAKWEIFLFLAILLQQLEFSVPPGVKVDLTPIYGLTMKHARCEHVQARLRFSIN

CYP 2D6 = target: T2, CYP 2D6 (Homo sapiens, UniProt P10635); test: as above; format: in vitro ADME; settings: substrate bufuralol (10 µM)
T2 construct: from tissue; host or cells: human liver microsomes
T2 sequence (P10635 whole entry): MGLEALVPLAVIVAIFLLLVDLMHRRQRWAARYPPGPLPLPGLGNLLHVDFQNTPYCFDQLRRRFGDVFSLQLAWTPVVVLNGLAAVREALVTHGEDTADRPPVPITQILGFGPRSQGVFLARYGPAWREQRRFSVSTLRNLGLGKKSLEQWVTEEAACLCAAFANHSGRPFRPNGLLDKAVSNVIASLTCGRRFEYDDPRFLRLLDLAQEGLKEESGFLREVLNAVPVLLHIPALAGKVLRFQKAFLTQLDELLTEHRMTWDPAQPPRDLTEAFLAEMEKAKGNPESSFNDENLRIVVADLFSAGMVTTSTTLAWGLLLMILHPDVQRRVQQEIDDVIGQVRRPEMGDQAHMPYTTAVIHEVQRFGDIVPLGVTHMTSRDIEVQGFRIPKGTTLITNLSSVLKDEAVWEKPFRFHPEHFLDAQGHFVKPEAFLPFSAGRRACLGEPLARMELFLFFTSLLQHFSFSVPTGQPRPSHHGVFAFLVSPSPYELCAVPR

B16-F1 TRCs [2] = test: Colony growth of B16-F1 TRCs in 90-Pa 3D soft fibrin gels; format: cell-based, murine; settings: 10 µM added day 3, washed out day 4, 3 days after washout
hERG channels = hERG channels (Homo sapiens, UniProt Q12809); test: Functional hERG blocking assay, patch clamp in CHO hERG cell line
hERG channels, sequence (Q12809 whole entry): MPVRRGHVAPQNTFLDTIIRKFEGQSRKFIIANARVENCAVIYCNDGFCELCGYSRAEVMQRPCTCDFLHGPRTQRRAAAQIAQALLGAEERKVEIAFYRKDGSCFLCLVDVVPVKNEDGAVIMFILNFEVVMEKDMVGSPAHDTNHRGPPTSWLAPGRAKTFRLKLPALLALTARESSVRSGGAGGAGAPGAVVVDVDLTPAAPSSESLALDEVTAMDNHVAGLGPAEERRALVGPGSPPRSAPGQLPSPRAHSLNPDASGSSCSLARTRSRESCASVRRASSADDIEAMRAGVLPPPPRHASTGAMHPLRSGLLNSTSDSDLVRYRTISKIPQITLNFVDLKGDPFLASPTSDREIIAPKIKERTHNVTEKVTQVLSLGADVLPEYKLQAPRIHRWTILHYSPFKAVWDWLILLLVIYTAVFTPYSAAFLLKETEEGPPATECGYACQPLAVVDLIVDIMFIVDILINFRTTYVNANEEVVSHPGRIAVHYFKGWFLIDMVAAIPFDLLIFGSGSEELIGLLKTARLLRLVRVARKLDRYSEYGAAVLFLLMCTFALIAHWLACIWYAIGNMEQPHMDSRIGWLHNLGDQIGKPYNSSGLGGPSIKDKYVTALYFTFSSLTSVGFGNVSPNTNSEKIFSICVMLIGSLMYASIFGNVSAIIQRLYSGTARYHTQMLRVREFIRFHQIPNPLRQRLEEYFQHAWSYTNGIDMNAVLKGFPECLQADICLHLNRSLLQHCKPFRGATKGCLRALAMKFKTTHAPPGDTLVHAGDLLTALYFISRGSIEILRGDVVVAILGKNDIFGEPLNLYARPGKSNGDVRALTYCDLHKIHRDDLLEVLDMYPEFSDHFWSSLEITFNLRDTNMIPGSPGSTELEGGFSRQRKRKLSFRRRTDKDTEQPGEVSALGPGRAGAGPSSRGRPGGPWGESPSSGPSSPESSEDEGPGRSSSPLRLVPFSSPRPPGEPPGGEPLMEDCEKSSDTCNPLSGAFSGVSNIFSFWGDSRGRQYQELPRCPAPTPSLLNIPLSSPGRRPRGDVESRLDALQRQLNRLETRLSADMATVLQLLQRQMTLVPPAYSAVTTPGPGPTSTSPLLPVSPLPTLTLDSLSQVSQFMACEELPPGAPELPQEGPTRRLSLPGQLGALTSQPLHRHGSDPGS

CYP 2C9 = target: T3, CYP 2C9 (Homo sapiens, UniProt P11712); test: Cytochromes enzyme inhibition assay, human liver microsomes; format: in vitro ADME; settings: substrate diclofenac (10 µM)
T3 construct: from tissue; host or cells: human liver microsomes
T3 sequence (P11712 whole entry): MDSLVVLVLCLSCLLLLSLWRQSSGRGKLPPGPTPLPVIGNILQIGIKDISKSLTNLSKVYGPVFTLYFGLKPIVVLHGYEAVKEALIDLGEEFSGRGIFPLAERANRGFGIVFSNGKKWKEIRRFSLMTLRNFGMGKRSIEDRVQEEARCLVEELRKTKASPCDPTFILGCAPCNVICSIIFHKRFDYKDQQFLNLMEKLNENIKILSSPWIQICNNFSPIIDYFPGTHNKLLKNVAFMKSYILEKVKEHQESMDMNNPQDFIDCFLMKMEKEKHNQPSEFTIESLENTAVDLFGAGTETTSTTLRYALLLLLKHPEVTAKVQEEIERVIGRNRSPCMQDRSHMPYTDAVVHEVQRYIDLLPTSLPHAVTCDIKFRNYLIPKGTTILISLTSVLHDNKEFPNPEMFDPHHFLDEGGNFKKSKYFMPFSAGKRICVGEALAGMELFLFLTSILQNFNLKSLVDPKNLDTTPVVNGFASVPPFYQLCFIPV

CYP 3A4 = target: T4, CYP 3A4 (Homo sapiens, UniProt P08684); test: as above; format: in vitro ADME
T4 construct: from tissue; host or cells: human liver microsomes
T4 sequence (P08684 whole entry): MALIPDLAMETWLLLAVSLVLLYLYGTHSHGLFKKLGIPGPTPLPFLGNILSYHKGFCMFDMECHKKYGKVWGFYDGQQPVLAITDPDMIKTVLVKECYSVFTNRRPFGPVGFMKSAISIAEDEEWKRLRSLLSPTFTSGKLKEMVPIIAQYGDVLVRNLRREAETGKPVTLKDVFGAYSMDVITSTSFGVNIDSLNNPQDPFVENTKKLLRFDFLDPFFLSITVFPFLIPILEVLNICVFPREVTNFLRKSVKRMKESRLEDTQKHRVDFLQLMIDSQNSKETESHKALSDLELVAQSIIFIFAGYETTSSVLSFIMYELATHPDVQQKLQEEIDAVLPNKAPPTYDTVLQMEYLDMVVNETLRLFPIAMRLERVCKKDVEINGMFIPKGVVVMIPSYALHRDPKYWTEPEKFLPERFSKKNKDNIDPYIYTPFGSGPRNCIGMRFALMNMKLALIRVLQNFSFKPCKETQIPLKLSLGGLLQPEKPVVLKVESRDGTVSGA

Water solubility = settings: PBS (pH 7.4), pH 7.4, aqueous buffer, kinetic from dmso stock
CYP 2C19 = target: T5, CYP 2C19 (Homo sapiens, UniProt P33261); test: Cytochromes enzyme inhibition assay, human liver microsomes; format: in vitro ADME; settings: substrate S-mephenytoin (35 µM)
T5 construct: from tissue; host or cells: human liver microsomes
T5 sequence (P33261 whole entry): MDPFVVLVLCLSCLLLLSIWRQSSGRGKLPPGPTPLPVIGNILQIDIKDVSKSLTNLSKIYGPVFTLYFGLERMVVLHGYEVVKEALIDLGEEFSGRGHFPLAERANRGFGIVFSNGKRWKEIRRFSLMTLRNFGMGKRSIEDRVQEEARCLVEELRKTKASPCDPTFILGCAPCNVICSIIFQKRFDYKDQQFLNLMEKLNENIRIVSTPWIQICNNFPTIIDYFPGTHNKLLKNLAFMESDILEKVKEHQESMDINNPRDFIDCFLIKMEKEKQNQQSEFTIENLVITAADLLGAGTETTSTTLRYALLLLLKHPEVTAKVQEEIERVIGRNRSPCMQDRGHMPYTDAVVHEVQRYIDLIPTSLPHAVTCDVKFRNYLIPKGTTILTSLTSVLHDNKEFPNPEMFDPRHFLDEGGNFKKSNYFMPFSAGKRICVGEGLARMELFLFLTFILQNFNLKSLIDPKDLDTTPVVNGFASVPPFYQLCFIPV

[3] = tested on: human ovarian cancer A2780; test: Colony growth of A2780 TRCs in 90-Pa fibrin gels; format: cell-based
Description: (§2) Salmon fibrinogen and thrombin were purchased from Reagent Proteins (CA, USA). 3D fibrin gels were prepared as described previously[5],[6]. In brief, fibrinogen was diluted into 2 mg mL^−1 with T7 buffer (pH 7.4, 50 mM Tris, 150 mM NaCl). Cells were detached from 2D rigid dishes and cell density was adjusted to 10^4 cells per mL. Fibrinogen and cell solution mixture were made by mixing the same volume of fibrinogen solution and cell solution, resulting in 1 mg mL^−1 fibrinogen and 5000 cells per mL in the mixture fibrin gels. A volume of 50 μL cell/fibrinogen mixture was seeded into each well of 96-well plate and mixed well with pre-added 1 μL thrombin (100 U mL^−1). The cell culture plate was then incubated in 37 °C cell culture incubator for 10 min. Finally, 200 μL of DMEM medium containing 10% FBS and antibiotics was added.

3T3 fibroblasts = test: Non-cancerous 3T3 fibroblasts on rigid dishes; format: cell-based, murine; settings: 0.1, 1, or 10 μM, 18 hrs
Description: Murine fibroblast cell line 3T3 cells were cultured on rigid plastic and treated with 0.1, 1, or 10 μM WYC-209 at the time of plating and observed for 18 hrs. Cell nucleus were stained with DAPI and apoptotic cells were assayed with PI. None: medium only; DMSO: medium containing 0.1% DMSO. (a) Representative images of cells at hour 18. (b) Quantitation of cell numbers per view field at hour 18. Mean ± s.e.m.; n= 5 randomly chosen view-fields; 3 separate experiments; no significant differences were observed between groups (Student’s t-test). Scale bars, 500 μm.
as §1

human lung cancer A549 = test: Colony growth of A549 TRCs in 90-Pa fibrin gels; format: cell-based
Description: as §2

[4] = tested on: human malignant melanoma A375; test: Colony growth of A375 TRCs in 90-Pa fibrin gels; format: cell-based; settings: Homo sapiens
Description: as §2

[5] = Systemic toxicity in treated mice (body weight, organs); format: in vivo, C57BL/6 mice
Source text: Four- to six-week-old female and male C57BL/6 mice were used in mice experiment. Mice were randomized into different groups. In metastasis experiment, B16-F1 cell spheroids were selected from 3D 90-Pa fibrin gels and pipetted to single cells. These TRCs were harvested and the cell number was counted under microscopy. The cells were then suspended in PBS with appropriate cell density. Thirty thousand TRCs were intravenously injected into the tail vein of each wild-type C57BL/6 mouse. Five days later, inoculated mice were intravenous implanted with 0.022 mg kg^−1 WYC-209, 0.22 mg kg^−1 WYC-209, or 0.1% DMSO every two days. The mice were euthanized and examined for lung tumor formation at day 30. In treated TRCs injected in vivo experiments, B16-F1 cells were seeded into 3D 90-Pa fibrin gels and treated with 10 µM WYC-209 or 0.1% DMSO on day 3, then isolated treated TRCs colonies on day 5 and pipetted into single cell. 30,000 of TRCs were intravenously injected into the tail vein of each wild-type C57BL/6 mouse. No blinding was performed in the mice experiments.
Lung, liver, spleen, bone, stomach, and brain of C57BL/6 mice were fixed by 4% paraformaldehyde then were embedded in paraffin and cut to ~4 µm thick sections by Thermo FINESSE 325. Organ sections were stained by H&E and slides were evaluated for tumor formation by a veterinary pathologist blinded to sample identity.

[6] = tested on: human breast cancer MCF-7; test: Colony growth of MCF-7 TRCs in 90-Pa fibrin gels; format: cell-based
Description: as §2

Q: With `CCOC(=O)c1cnc(C#Cc2ccc3c(c2)C(C)(C)CC[S@+]3[O-])nc1` [WYC-209A] as the molecule, how does the “Decrease of S phase of TRCs” value (B16-F1 TRCs [1]) read?
A: completely abolished S phase

Q: And the IC50 (CYP 1A2)?
A: > 10 µM

Q: What about the IC50 (CYP 2D6) of the same molecule?
A: > 10 µM

Q: And the “TRC growth after compound washout” value (B16-F1 TRCs [2])?
A: failed to resume growing

Q: And the IC50 (hERG channels)?
A: > 30 µM

Q: What about the IC50 (CYP 2C9) of the same molecule?
A: > 10 µM

Q: What about the IC50 (CYP 3A4; first 3A4 column) of the same molecule?
A: > 10 µM

Q: And the IC50 (CYP 3A4; second 3A4 column)?
A: > 10 µM

Q: And the solubility at 1 h (Water solubility)?
A: 89.4 µM (≈ 32.9 µg/mL)

Q: And the IC50 (CYP 2C19)?
A: > 10 µM

Q: Which “Decrease of S phase of TRCs” value (B16-F1 TRCs [1]) does the source give for `CCOC(=O)c1cnc(C#Cc2ccc3c(c2)C(C)(C)CC[S@@+]3[O-])nc1` [WYC-209B] here?
A: completely abolished S phase

Q: What about the IC50 (CYP 1A2) of the same molecule?
A: > 10 µM

Q: What about the IC50 (CYP 2D6) of the same molecule?
A: > 10 µM

Q: What about the “TRC growth after compound washout” value (B16-F1 TRCs [2]) of the same molecule?
A: failed to resume growing

Q: What about the IC50 (hERG channels) of the same molecule?
A: > 30 µM

Q: And the IC50 (CYP 2C9)?
A: > 10 µM

Q: What about the IC50 (CYP 3A4; first 3A4 column) of the same molecule?
A: > 10 µM

Q: What about the IC50 (CYP 3A4; second 3A4 column) of the same molecule?
A: > 10 µM

Q: And the solubility at 1 h (Water solubility)?
A: 88.1 µM (≈ 32.5 µg/mL)

Q: What about the IC50 (CYP 2C19) of the same molecule?
A: > 10 µM

Q: For `CCOC(=O)c1cnc(C#Cc2ccc3c(c2)C(C)(C)CC[S+]3[O-])nc1` (stereo not drawn) [WYC-209], which IC50 ([3]; 0 h, A2780, treated on day 0) is on record?
A: 230 nM

Q: What about the inhibition at 10 µM ([3]; A2780, 10 μM) of the same molecule?
A: 100%

Q: And the “Decrease of S phase of TRCs” value (B16-F1 TRCs [1])?
A: completely abolished S phase

Q: And the “Impact / toxicity on non-cancerous 3T3 fibroblasts” value (3T3 fibroblasts)?
A: little toxicity; also recorded: little impact

Q: What about the “TRC growth after compound washout” value (B16-F1 TRCs [2]) of the same molecule?
A: failed to resume growing

Q: What about the IC50 (human lung cancer A549; 0 h, A549, treated on day 0) of the same molecule?
A: 100 nM

Q: What about the inhibition at 10 µM (human lung cancer A549; A549, 10 μM) of the same molecule?
A: 100%

Q: What about the IC50 ([4]; A-375, 0 h, A375, treated on day 0) of the same molecule?
A: 380 nM

Q: What about the inhibition at 10 µM ([4]; A-375, A375, 10 μM) of the same molecule?
A: 100%

Q: What about the “Mouse body weight versus control group” value ([5]; 0.022 or 0.22 mg kg−1) of the same molecule?
A: no effects on mouse weight

Q: What about the “Toxic effects in mice / on organs” value ([5]; 0.022 or 0.22 mg kg−1 i.v. every two days) of the same molecule?
A: No abnormalities in mouse organs; also recorded: no toxic effects on mouse livers; also recorded: no toxic effects on mouse stomach; also recorded: no observable toxic or necrotic effects or weight loss; also recorded: without showing apparent toxicity

Q: What about the IC50 ([6]; MCF7, 0 h, MCF-7, treated on day 0) of the same molecule?
A: 100 nM

Q: What about the inhibition at 10 µM ([6]; MCF7, MCF-7, 10 μM) of the same molecule?
A: 100%
